Like-named read-outs stand apart in the source and are kept apart here.
Assays:
PI3Kδ = molecular target: T1, PI3Kδ (Homo sapiens, UniProt O00329); assay: Enzyme binding assay (KINOMEscan, DiscoveRx); details: PIK3Cδ_h
T1 construct: purchased DiscoveRx Corporation, San Diego (contract service, KINOMEscan)
T1 sequence (O00329 1-1044): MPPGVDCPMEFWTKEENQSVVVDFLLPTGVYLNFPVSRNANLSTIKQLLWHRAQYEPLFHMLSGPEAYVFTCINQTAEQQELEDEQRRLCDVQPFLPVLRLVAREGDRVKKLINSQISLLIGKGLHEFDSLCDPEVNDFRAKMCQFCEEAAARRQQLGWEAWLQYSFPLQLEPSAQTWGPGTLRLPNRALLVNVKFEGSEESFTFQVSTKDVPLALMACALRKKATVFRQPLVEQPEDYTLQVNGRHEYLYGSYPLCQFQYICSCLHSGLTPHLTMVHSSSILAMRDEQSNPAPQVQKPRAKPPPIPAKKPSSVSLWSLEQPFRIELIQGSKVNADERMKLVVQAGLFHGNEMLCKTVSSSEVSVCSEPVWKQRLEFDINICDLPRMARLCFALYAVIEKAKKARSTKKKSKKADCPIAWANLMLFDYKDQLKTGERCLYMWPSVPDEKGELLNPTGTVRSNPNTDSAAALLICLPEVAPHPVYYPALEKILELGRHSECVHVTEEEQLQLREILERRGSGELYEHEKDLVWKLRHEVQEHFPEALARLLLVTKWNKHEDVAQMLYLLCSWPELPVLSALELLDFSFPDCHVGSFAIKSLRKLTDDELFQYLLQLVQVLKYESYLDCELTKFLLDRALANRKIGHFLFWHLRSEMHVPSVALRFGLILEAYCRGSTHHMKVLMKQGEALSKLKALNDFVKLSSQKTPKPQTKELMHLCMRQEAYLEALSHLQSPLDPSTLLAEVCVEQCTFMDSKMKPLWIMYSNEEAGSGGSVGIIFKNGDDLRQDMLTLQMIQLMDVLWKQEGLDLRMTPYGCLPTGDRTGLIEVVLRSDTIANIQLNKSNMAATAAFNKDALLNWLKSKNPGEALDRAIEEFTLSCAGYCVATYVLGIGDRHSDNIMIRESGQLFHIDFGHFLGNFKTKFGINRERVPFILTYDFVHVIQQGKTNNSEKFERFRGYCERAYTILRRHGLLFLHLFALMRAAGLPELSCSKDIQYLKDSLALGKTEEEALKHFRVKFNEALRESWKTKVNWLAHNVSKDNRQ
Outline: (§1)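 Kinase binding measured via KINOMEscan, reported as affinity.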

PI3Kβ = molecular target: T2, PI3Kβ (Homo sapiens, UniProt P42338); assay: Enzyme binding assay (KINOMEscan, DiscoveRx); details: PIK3Cβ_h, read-out: Kd PIK3Cβ_h
T2 construct: purchased DiscoveRx Corporation, San Diego (contract service, KINOMEscan)
T2 sequence (P42338 whole entry): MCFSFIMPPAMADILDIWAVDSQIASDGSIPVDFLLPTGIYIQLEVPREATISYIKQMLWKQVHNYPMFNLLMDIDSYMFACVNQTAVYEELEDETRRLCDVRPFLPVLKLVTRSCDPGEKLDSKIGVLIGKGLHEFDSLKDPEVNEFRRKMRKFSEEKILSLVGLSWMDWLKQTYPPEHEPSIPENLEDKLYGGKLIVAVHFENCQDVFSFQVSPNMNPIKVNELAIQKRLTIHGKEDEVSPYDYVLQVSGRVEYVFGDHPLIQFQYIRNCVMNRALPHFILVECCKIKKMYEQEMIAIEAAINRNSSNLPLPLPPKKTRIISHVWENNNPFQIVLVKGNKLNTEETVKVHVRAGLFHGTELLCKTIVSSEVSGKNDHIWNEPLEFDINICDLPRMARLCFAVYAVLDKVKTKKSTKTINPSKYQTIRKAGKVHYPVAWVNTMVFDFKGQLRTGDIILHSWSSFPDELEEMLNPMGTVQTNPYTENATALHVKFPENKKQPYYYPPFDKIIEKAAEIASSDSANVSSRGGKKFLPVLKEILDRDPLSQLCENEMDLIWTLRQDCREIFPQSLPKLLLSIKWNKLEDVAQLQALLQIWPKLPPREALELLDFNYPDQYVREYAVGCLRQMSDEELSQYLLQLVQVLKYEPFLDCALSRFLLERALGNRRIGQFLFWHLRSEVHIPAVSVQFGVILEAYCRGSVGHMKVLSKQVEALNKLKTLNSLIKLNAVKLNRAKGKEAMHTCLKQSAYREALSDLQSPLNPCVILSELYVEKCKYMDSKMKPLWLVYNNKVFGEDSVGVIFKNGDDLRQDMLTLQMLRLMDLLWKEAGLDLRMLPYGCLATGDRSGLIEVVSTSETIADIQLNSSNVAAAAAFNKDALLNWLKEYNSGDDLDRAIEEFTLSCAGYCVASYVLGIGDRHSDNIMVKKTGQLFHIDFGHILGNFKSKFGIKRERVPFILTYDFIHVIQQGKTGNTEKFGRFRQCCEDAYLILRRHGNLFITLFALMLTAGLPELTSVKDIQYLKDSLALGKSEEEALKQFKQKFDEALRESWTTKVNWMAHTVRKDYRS
Outline: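 Reported Kd (nM) reflects inhibitor binding to the kinase, as measured by KINOMEscan technology.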

[1] = system: Akt phosphorylated at Thr308 in PC-3 cells; assay: Cellular assay: phosphorylation of Akt at Thr308 in PC-3 cells (MSD ELISA); assay type: cell-based; details: PC-3 cells, 60 min compound incubation, MSD ELISA, read-out: IC50 pAkt_Thr308
Outline: (§2)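 PC-3 cells were exposed to compound or 0.3% DMSO for 60 min at 37° C, 5% CO2, then lysed in ice-cold buffer. Phospho-Akt was captured on site-specific antibody-coated plates and detected with Sulfo-tag anti-total Akt by electrochemiluminescence. IC50 values came from five-concentration response curves.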

[2] = system: Akt phosphorylated at Ser473 in PC-3 cells; assay: Cellular assay: phosphorylation of Akt at Ser473 in PC-3 cells (MSD ELISA); assay type: cell-based; details: PC-3 cells, 60 min compound incubation, MSD ELISA, read-out: IC50 pAkt_S473
Outline: as §2

kinase enzymes [3] = molecular target: T3, kinase enzymes (Homo sapiens, UniProt P48736); assay: Enzyme binding assay (KINOMEscan, DiscoveRx), further kinases of Table A; details: PIK3Cγ_h
T3 construct: purchased DiscoveRx Corporation, San Diego (contract service, KINOMEscan)
T3 sequence (P48736 whole entry): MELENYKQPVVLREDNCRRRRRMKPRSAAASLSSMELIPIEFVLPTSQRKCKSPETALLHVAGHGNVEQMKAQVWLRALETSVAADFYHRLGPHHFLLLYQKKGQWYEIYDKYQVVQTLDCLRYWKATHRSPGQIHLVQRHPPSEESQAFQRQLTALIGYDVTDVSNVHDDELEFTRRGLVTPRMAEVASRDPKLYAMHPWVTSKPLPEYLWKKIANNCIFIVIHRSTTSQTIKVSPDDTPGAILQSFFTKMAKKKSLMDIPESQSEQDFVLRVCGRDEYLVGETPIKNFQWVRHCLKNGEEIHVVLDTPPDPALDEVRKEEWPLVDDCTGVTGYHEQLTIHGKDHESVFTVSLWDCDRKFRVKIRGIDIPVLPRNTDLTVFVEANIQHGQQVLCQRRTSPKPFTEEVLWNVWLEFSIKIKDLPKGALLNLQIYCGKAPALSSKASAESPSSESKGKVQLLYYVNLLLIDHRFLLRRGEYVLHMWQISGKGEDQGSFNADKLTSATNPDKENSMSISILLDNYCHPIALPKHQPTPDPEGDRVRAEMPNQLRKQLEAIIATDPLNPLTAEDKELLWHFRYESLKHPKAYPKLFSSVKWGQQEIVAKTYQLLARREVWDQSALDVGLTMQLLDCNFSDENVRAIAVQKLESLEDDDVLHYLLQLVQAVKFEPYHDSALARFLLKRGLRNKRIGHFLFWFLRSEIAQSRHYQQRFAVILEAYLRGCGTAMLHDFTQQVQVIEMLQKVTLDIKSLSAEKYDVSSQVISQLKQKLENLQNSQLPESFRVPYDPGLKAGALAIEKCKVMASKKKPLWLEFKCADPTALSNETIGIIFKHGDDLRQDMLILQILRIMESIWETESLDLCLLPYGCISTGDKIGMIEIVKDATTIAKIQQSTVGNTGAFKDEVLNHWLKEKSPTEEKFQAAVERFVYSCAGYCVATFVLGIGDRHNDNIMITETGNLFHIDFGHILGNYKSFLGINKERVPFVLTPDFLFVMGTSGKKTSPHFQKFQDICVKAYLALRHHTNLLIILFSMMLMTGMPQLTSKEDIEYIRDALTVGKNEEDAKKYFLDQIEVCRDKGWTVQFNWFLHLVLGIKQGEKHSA
Outline: as §1

kinase enzymes [4] = molecular target: T4, kinase enzymes (Homo sapiens, UniProt P42336); assay: as above; details: PIK3Cα_h
T4 construct: purchased DiscoveRx Corporation, San Diego (contract service, KINOMEscan)
T4 sequence (P42336 whole entry): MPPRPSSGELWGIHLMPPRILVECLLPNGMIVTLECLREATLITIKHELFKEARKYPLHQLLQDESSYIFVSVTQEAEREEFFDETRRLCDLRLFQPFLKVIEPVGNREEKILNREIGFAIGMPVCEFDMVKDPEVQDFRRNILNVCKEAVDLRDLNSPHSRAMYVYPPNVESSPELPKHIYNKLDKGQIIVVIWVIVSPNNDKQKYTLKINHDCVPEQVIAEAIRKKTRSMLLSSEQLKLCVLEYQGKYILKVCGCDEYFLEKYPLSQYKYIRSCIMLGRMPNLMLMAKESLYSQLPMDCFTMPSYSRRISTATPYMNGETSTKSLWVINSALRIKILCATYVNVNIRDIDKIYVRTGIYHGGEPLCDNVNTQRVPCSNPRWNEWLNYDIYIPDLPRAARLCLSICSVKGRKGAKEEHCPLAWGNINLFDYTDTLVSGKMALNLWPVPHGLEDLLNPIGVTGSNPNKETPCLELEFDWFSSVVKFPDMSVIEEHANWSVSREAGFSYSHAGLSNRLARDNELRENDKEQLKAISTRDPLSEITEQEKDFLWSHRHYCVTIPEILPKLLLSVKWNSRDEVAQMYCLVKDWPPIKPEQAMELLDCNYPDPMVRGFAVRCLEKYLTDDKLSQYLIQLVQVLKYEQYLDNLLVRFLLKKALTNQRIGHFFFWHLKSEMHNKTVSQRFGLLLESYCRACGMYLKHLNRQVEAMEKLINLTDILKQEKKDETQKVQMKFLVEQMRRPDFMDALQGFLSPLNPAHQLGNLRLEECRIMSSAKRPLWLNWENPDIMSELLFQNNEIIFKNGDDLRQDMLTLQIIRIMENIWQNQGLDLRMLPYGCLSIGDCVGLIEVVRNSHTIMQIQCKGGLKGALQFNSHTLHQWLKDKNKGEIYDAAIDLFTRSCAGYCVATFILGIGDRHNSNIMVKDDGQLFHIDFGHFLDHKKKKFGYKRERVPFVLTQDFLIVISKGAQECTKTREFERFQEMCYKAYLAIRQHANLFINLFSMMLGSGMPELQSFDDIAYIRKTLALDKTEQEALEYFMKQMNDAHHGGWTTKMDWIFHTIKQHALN
Outline: as §1

kinase enzymes [5] = molecular target: T5, kinase enzymes (Homo sapiens, UniProt P42345); assay: as above; details: MTOR_h
T5 construct: purchased DiscoveRx Corporation, San Diego (contract service, KINOMEscan)
Outline: as §1

Compound	Kd (PI3Kδ)	Kd (PI3Kβ)	IC50 [1]	IC50 [2]	Kd (kinase enzymes [3])	Kd (kinase enzymes [4])	Kd (kinase enzymes [5])	IC50 ([1]; Homo sapiens, PC-3, 1 h)	IC50 ([2]; Homo sapiens, PC-3, 1 h)
CC(Nc1cc(F)c(F)c(F)c1)c1cc(C(=O)N(C)C2CCNC2)cc2ncc(N3CCOCC3)nc12 (single isomer, unassigned) [Compound 296a]	170 nM	1 nM	16 nM	23 nM	3240 nM	1380 nM	> 30200 nM		
CC(Nc1cc(F)c(F)c(F)c1)c1cc(C(=O)N(C)C2CCNC2)cc2ncc(N3CCOCC3)nc12 (single isomer, unassigned) [Compound 296b]	9330 nM	14 nM	339 nM	468 nM	> 30200 nM	> 30200 nM	> 30200 nM		
CN[C@H]1CCN(C(=O)c2cc(C(C)Nc3cc(F)c(F)c(F)c3)c3nc(N4CCOCC4)cnc3c2)C1 (single isomer, unassigned) [Compound 297a]	6310 nM	26 nM	204 nM	200 nM	15100 nM	17000 nM	> 30200 nM		
CN[C@H]1CCN(C(=O)c2cc(C(C)Nc3cc(F)c(F)c(F)c3)c3nc(N4CCOCC4)cnc3c2)C1 (single isomer, unassigned) [Compound 297b]	112 nM	0.5 nM	3 nM	7 nM	1480 nM	1020 nM	> 30200 nM		
CC(Oc1ccc(F)c(F)c1)c1cc(C(=O)N2CC[C@@H](N(C)C)C2)cc2ncc(N3CCOCC3)nc12 (single isomer, unassigned) [Compound 298b]	10200 nM	186 nM	> 513 nM	501 nM	> 30200 nM	24000 nM	> 30200 nM		
CC(Oc1ccc(F)c(F)c1)c1cc(C(=O)NCCN(C)C)cc2ncc(N3CCOCC3)nc12 (single isomer, unassigned) [Compound 299a]	269 nM	1 nM	56 nM	~45 nM	11000 nM	6310 nM	> 30200 nM		
CC(Nc1ccc(F)c(F)c1)c1cc(C(=O)N2CCC[C@H](O)C2)cc2ncc(N3CCOCC3)nc12 (single isomer, unassigned) [Compound 302b]	186 nM	3 nM	39 nM	54 nM	11700 nM	1100 nM	> 30200 nM		
CC(Nc1cc(F)c(F)c(F)c1)c1cc(C(=O)NCCN(C)C)cc2ncc(N3CCOCC3)nc12 (single isomer, unassigned) [Compound 309a]	59 nM	0.1 nM	8 nM	9 nM	1740 nM	1100 nM	20000 nM		
CC(Nc1cc(F)c(F)c(F)c1)c1cc(C(=O)NCCN(C)C)cc2ncc(N3CCOCC3)nc12 (single isomer, unassigned) [Compound 309b]	2340 nM	18 nM	282 nM	363 nM	5620 nM	4900 nM	> 30200 nM		
CC(C)NCCNC(=O)c1cc(C(C)Nc2ccc(Cl)c(F)c2)c2nc(N3CCOCC3)cnc2c1 (single isomer, unassigned) [Compound 312a]	10000 nM	1150 nM			> 30200 nM	15500 nM	> 10000 nM	> 513 nM	> 513 nM
CC(C)NCCNC(=O)c1cc(C(C)Nc2ccc(Cl)c(F)c2)c2nc(N3CCOCC3)cnc2c1 (single isomer, unassigned) [Compound 312b]	1860 nM	26 nM	> 513 nM	> 513 nM	28200 nM	5130 nM	20000 nM		
CC(Oc1ccc(Cl)c(F)c1)c1cc(C(=O)N(C)CCN(C)C)cc2ncc(N3CCOCC3)nc12 (single isomer, unassigned) [Compound 313a]	851 nM	3 nM	166 nM		26300 nM	5010 nM	> 30200 nM		257 nM
CC(Oc1ccc(Cl)c(F)c1)c1cc(C(=O)N(C)CCN(C)C)cc2ncc(N3CCOCC3)nc12 (single isomer, unassigned) [Compound 313b]	5490 nM	302 nM	> 513 nM	> 513 nM	> 30200 nM	14500 nM	> 30200 nM		
CC(C)NCCNC(=O)c1cc(C(C)Oc2cccc(F)c2)c2nc(N3CCOCC3)cnc2c1 (single isomer, unassigned) [Compound 314a]	6030 nM	417 nM	> 513 nM	~407 nM	30200 nM	17400 nM	19100 nM		
CNCCN(C)C(=O)c1cc(C(C)Nc2cc(F)c(F)c(F)c2)c2nc(N3CCOCC3)cnc2c1 (single isomer, unassigned) [Compound 335a]	33 nM	0.2 nM	2 nM	5 nM	1220 nM	466 nM	18600 nM		
CC(Oc1cccc(F)c1)c1cc(C(=O)N(C)C)cc2ncc(N3CCOCC3)nc12 (single isomer, unassigned) [Compound 339a]	2090 nM	112 nM	407 nM	> 513 nM	10700 nM	4570 nM	> 30200 nM		
CC(Oc1cccc(F)c1)c1cc(C(=O)N(C)C)cc2ncc(N3CCOCC3)nc12 (single isomer, unassigned) [Compound 339b]	1950 nM	316 nM	> 513 nM	> 513 nM	2190 nM	759 nM	6460 nM		
CNCCNC(=O)c1cc(C(C)Oc2ccc(F)c(F)c2)c2nc(N3CCOCC3)cnc2c1 (single isomer, unassigned) [Compound 344b]	3800 nM	166 nM	~513 nM	> 513 nM	14100 nM	8130 nM	> 30200 nM		
CNCCOCCN(C)C(=O)c1cc(C(C)Nc2ccc(F)c(F)c2)c2nc(N3CCOCC3)cnc2c1 (single isomer, unassigned) [Compound 345b]	22900 nM	724 nM	> 513 nM	> 513 nM	> 30200 nM	> 30200 nM	> 30200 nM		
CC(Nc1ccc(F)c(F)c1)c1cc(C(=O)N2CCN3CCC[C@@H]3C2)cc2ncc(N3CCOCC3)nc12 (single isomer, unassigned) [Compound 347b]	355 nM	2 nM	60 nM	85 nM	25700 nM	3890 nM	> 30200 nM		
CC(Nc1ccc(F)c(F)c1)c1cc(C(=O)NCC(C)(C)O)cc2ncc(N3CCOCC3)nc12 (single isomer, unassigned) [Compound 348b]	25700 nM	1320 nM	> 513 nM	> 513 nM	> 30200 nM	> 30200 nM	> 30200 nM		
CC(Nc1ccc(F)c(F)c1)c1cc(C(=O)N(C)CCN(C)C)cc2ncc(N3CCOCC3)nc12 (single isomer, unassigned) [Compound 349b]	2750 nM	14 nM	302 nM	479 nM	25700 nM	4680 nM	> 30200 nM		
